# According to ChEMBL document CHEMBL4033623, “Synthesis of xanthone derivatives and studies on the inhibition against cancer cells growth and synergistic combinations of them” (Eur J Med Chem, 2017):
# The source made the active and inactive calls. The rule behind the calls is not given here.
# Columns and labels:
# [1] = test system: MCF7; test: Antiproliferative activity against human MCF7 cells after 48 hrs by CCK8 assay; assay type: functional, cell-based; details: MCF7, 48 h
# [2] = test system: COLO 320; test: Antiproliferative activity against human COLO320 cells after 48 hrs by CCK8 assay; assay type: functional, cell-based; details: COLO 320, 48 h
# [3] = test system: MDA-MB-231; test: Antiproliferative activity against human MDA-MB-231 cells after 48 hrs by CCK8 assay; assay type: functional, cell-based; details: MDA-MB-231, 48 h
# [4] = test system: K562; test: Antiproliferative activity against human K562 cells after 48 hrs by CCK8 assay; assay type: functional, cell-based; details: K562, 48 h
# [5] = test system: HepG2; test: Antiproliferative activity against human HepG2 cells after 48 hrs by CCK8 assay; assay type: functional, cell-based; details: HepG2, 48 h
# [6] = test system: COLO 320; test: Synergistic antiproliferative activity against human COLO320 cells at compound to DMXAA mol ratio of 1:1 after 48 hrs by CCK8 assay; assay type: functional, cell-based; details: COLO 320, 48 h
# [7] = test system: MDA-MB-231; test: Synergistic antiproliferative activity against human MDA-MB-231 cells at compound to DMXAA mol ratio of 1:1 after 48 hrs by CCK8 assay; assay type: functional, cell-based; details: MDA-MB-231, 48 h
# [8] = test system: K562; test: Synergistic antiproliferative activity against human K562 cells at compound to DMXAA mol ratio of 1:1 after 48 hrs by CCK8 assay; assay type: functional, cell-based; details: K562, 48 h
# [9] = test system: HepG2; test: Synergistic antiproliferative activity against human HepG2 cells at compound to DMXAA mol ratio of 1:1 after 48 hrs by CCK8 assay; assay type: functional, cell-based; details: HepG2, 48 h
# [10] = test system: MCF7; test: Synergistic antiproliferative activity against human MCF7 cells at compound to DMXAA mol ratio of 1:1 after 48 hrs by CCK8 assay; assay type: functional, cell-based; details: MCF7, 48 h
# [11] = test system: MDA-MB-231; test: Induction of apoptosis in human MDA-MB-231 cells assessed as viable cells at 96 uM after 48 hrs by Annexin-V/FITC/PI staining based flow cytometry (reference value: 88.78 %); assay type: functional; details: MDA-MB-231, 48 h, read-out: Activity
# [12] = test system: MDA-MB-231; test: Decrease in caspase-9 level in human MDA-MB-231 cells at 24 to 96 uM after 48 hrs by Western blot analysis; assay type: functional, cell-based
# [13] = test system: MDA-MB-231; test: Induction of apoptosis in human MDA-MB-231 cells assessed as early apoptotic cells at 24 uM after 48 hrs by Annexin-V/FITC/PI staining based flow cytometry (reference value: 0.03 %); assay type: functional
# [14] = test system: MDA-MB-231; test: Decrease in MDM2 level in human MDA-MB-231 cells at 24 to 96 uM after 48 hrs by Western blot analysis; assay type: functional, cell-based
# [15] = test system: MDA-MB-231; test: Induction of apoptosis in human MDA-MB-231 cells assessed as viable cells at 24 uM after 48 hrs by Annexin-V/FITC/PI staining based flow cytometry (reference value: 88.78 %); assay type: functional; details: MDA-MB-231, 48 h, read-out: Activity
# [16] = test system: MDA-MB-231; test: Cell cycle arrest in human MDA-MB-231 cells assessed as increase in accumulation at G2/M phase at 48 uM after 48 hrs by propidium iodide staining based flow cytometric method relative to control; assay type: functional
# [17] = test system: MDA-MB-231; test: Induction of apoptosis in human MDA-MB-231 cells after 48 hrs by Annexin-V/FITC/PI staining based flow cytometry; assay type: functional, cell-based
# [18] = test system: MDA-MB-231; test: Induction of apoptosis in human MDA-MB-231 cells assessed as early apoptotic cells at 96 uM after 48 hrs by Annexin-V/FITC/PI staining based flow cytometry (reference value: 0.03 %); assay type: functional
# [19] = test system: MDA-MB-231; test: Induction of apoptosis in human MDA-MB-231 cells assessed as viable cells at 48 uM after 48 hrs by Annexin-V/FITC/PI staining based flow cytometry (reference value: 88.78 %); assay type: functional; details: MDA-MB-231, 48 h, read-out: Activity
# [20] = test system: MDA-MB-231; test: Induction of apoptosis in human MDA-MB-231 cells assessed as late apoptotic cells at 24 uM after 48 hrs by Annexin-V/FITC/PI staining based flow cytometry (reference value: 1.18 %); assay type: functional
# [21] = test system: MDA-MB-231; test: Induction of apoptosis in human MDA-MB-231 cells assessed as increase in cleaved caspase-3 expression at 24 to 96 uM after 48 hrs by Western blot analysis; assay type: functional, cell-based
# [22] = test system: MDA-MB-231; test: Decrease in caspase-3 level in human MDA-MB-231 cells at 24 to 96 uM after 48 hrs by Western blot analysis; assay type: functional, cell-based
# [23] = test system: MDA-MB-231; test: Induction of apoptosis in human MDA-MB-231 cells assessed as early apoptotic cells at 48 uM after 48 hrs by Annexin-V/FITC/PI staining based flow cytometry (reference value: 0.03 %); assay type: functional
# [24] = test system: MDA-MB-231; test: Induction of apoptosis in human MDA-MB-231 cells assessed as late apoptotic cells at 96 uM after 48 hrs by Annexin-V/FITC/PI staining based flow cytometry (reference value: 1.18 %); assay type: functional
# [25] = test system: MDA-MB-231; test: Induction of apoptosis in human MDA-MB-231 cells assessed as necrotic cells at 96 uM after 48 hrs by Annexin-V/FITC/PI staining based flow cytometry (reference value: 10.01 %); assay type: functional
# [26] = test system: MDA-MB-231; test: Induction of apoptosis in human MDA-MB-231 cells assessed as late apoptotic cells at 48 uM after 48 hrs by Annexin-V/FITC/PI staining based flow cytometry (reference value: 1.18 %); assay type: functional
# [27] = test system: MDA-MB-231; test: Induction of apoptosis in human MDA-MB-231 cells assessed as necrotic cells at 48 uM after 48 hrs by Annexin-V/FITC/PI staining based flow cytometry (reference value: 10.01 %); assay type: functional
# [28] = test system: MDA-MB-231; test: Induction of apoptosis in human MDA-MB-231 cells assessed as increase in cleaved PARP level at 24 to 96 uM after 48 hrs by Western blot analysis; assay type: functional, cell-based
# [29] = test system: MDA-MB-231; test: Increase in p53 level in human MDA-MB-231 cells at 24 to 96 uM after 48 hrs by Western blot analysis; assay type: functional, cell-based
# [30] = test system: MDA-MB-231; test: Induction of apoptosis in human MDA-MB-231 cells assessed as necrotic cells at 24 uM after 48 hrs by Annexin-V/FITC/PI staining based flow cytometry (reference value: 10.01 %); assay type: functional
SMILES,IC50 [1] [µM],IC50 [2] [µM],IC50 [3] [µM],IC50 [4] [µM],IC50 [5] [µM],further results
O=c1c2ccc(O)cc2oc2c(O)c(O)ccc12,43.7,77.3,87.3,82.3,87.3,–
O=c1c2cc(O)ccc2oc2c(O)cccc12,13.4,53.7,43.8,43.5,23.8,–
O=c1c2cc(Cl)ccc2oc2c(O)cccc12,13,87.5,57.1,52.1,37.3,–
COc1cc(OC)c2c(=O)c3cc(Br)ccc3oc2c1,43.1,77.1,87.1,52.1,87.1,–
COc1cc(OC)c2c(=O)c3ccc(O)cc3oc2c1,11.2,12.1,9.6,29.1,8.7,IC50 [6]: 10.2 µM; IC50 [7]: 9.13 µM; IC50 [8]: 26.2 µM; IC50 [9]: 8.43 µM; IC50 [10]: 14100 nM
"O=c1c2ccccc2oc2c(O)c(O)ccc12 [3,4-DIHYDROXYXANTHONE]",93.2,73,124,103,89.7,–
O=c1c2ccccc2oc2cc(O)ccc12,121,> 200,93,> 200,85.3,–
O=c1c2c(O)cccc2oc2cc(O)cc(O)c12,31.6,36.4,33,60.1,55.3,–
O=c1c2ccc(O)cc2oc2cc(O)cc(O)c12,112,105,55.6,55.6,124,–
Cc1ccc2c(=O)c3c(O)cc(O)cc3oc2c1,4.2,27.1,8.6,5.1,12.7,IC50 [6]: 22.8 µM; IC50 [7]: 2.63 µM; IC50 [8]: 4.65 µM; IC50 [9]: 8.75 µM; IC50 [10]: 2060 nM
O=c1c2ccc(O)cc2oc2c(O)cccc12,41.9,55.1,95.6,45.1,23.7,–
O=c1c2cc(O)c(O)cc2oc2cc(O)cc(O)c12,43.2,23,23.6,13.1,23.7,–
COc1ccc2c(=O)c3cc(O)ccc3oc2c1,23.4,93.7,> 200,> 200,> 200,–
O=c1c2cc(Br)ccc2oc2c(O)cccc12,22.9,102,12.5,> 200,82.6,–
O=c1c2ccccc2oc2ccc(Cl)cc12,> 200,96.7,69.4,> 200,62,–
Cc1ccc2c(=O)c3cccc(O)c3oc2c1,83.4,53.7,43.8,93.5,93.8,–
COc1cc(O)c2c(=O)c3c(OC)cccc3oc2c1,34.3,35.7,34.7,34.2,32.7,–

SMILES,IC50 [1] [µM],IC50 [2] [µM],IC50 [3] [µM],IC50 [4] [µM],IC50 [5] [µM],further results
COc1cc(OC)c2c(=O)c3cc(Cl)ccc3oc2c1,21.4,11.5,11.4,19.4,31.2,–
O=c1c2ccc(O)cc2oc2ccc(Cl)cc12,41.2,55.1,45.6,45.1,43.7,–
Cc1ccc2c(=O)c3cccc(CC(=O)O)c3oc2c1C [VADIMEZAN],54.4,39.5,48.4,57.4,100,viability at 96 µM [11]: 58.8%; Activity [12]: Active; Activity [13]: 0.53%; Activity [14]: Active; viability at 24 µM [15]: 80.7%; Activity [16]: 25%; Activity [17]: Dose-dependent effect; Activity [18]: 4.48%; viability at 48 µM [19]: 65.9%; Activity [20]: 6.65%; Activity [21]: Active; Activity [22]: Active; Activity [23]: 2.22%; Activity [24]: 14.93%; Activity [25]: 21.83%; Activity [26]: 17.03%; Activity [27]: 14.88%; Activity [28]: Active; Activity [29]: Active; Activity [30]: 12.09%
O=c1c2cc(Cl)ccc2oc2cc(O)cc(O)c12,1.2,15.2,5.2,5.2,3.2,IC50 [6]: 9.15 µM; IC50 [7]: 3.1 µM; IC50 [8]: 2.27 µM; IC50 [9]: 4.22 µM; IC50 [10]: 1150 nM
O=c1c2ccccc2oc2cc(O)cc(O)c12,11.2,15.1,11.6,45.1,11.7,–
O=c1c2ccc(O)cc2oc2ccc(O)cc12,92.4,31.5,32.4,88.9,52.2,–
O=c1c2cc(Br)ccc2oc2c(O)c(O)ccc12,104,63.1,83.2,53.5,63.8,–
COc1cc(OC)c2c(=O)c3c(O)cccc3oc2c1,21.1,25.9,25.9,25.1,83.8,–
O=c1c2cc(O)ccc2oc2c(O)c(O)ccc12,> 200,83.1,53.1,63.1,> 200,–
O=c1c2cc(O)ccc2oc2cc(O)c(O)cc12,28.1,93.2,23.5,73.5,63.3,–
O=c1c2cc(O)ccc2oc2cc(O)cc(O)c12,31.2,> 200,25.1,106,> 200,–
O=c1c2cc(O)ccc2oc2ccc(O)cc12 [EUXANTHONE],128,91.2,83.5,73.5,> 200,–
O=c1c2cc(Cl)ccc2oc2cccc(O)c12,53.1,> 200,67.1,62,> 200,–
O=c1c2cccc(O)c2oc2cc(O)cc(O)c12,23.4,23.7,23.8,28.5,33.8,–
O=c1c2cc(O)c(O)cc2oc2cccc(O)c12,101,85.1,65.9,156,83.8,–
O=c1c2ccc(O)cc2oc2cc(O)ccc12,91.3,37.7,31.7,31.2,61.7,–
